For data set [1] the following is noted: human gut metagenome, 24 h, 2 µM.
The nature of data set [2]: The drug is tested on WLS-310 corresponding to human gut metagenome with ENA study accession number: PRJEB37062 and ENA sample accession number: ERS12561785 for biotransformation under anaerobic condition. The drug concentrations were measured over 9 timepoints collected between 0 and 24 hours of incubation by liquid-chromatography-coupled mass spectrometry (LC–MS). The note with it: 2 µM.

Data set [3] is described as follows: The drug is tested on WLS-006 corresponding to human gut metagenome with ENA study accession number: PRJEB37062 and ENA sample accession number: ERS12561741 for biotransformation under anaerobic condition. The drug concentrations were measured over 9 timepoints collected between 0 and 24 hours of incubation by liquid-chromatography-coupled mass spectrometry (LC–MS). The note with it: 2 µM.

Data set [4] is described as follows: The drug is tested on WLS-370 corresponding to human gut metagenome with ENA study accession number: PRJEB37062 and ENA sample accession number: ERS12561793 for biotransformation under anaerobic condition. The drug concentrations were measured over 9 timepoints collected between 0 and 24 hours of incubation by liquid-chromatography-coupled mass spectrometry (LC–MS). The note with it: 2 µM.

Data set [5] is described as follows: The drug is tested on Z-022 corresponding to mouse gut metagenome with ENA study accession number: PRJEB37062 and ENA sample accession number: ERS12561821 for biotransformation under anaerobic condition. The drug concentrations were measured over 9 timepoints collected between 0 and 24 hours of incubation by liquid-chromatography-coupled mass spectrometry (LC–MS). The note with it: 2 µM.

Data set [6] can be described thus: The drug is tested on Z-030 corresponding to mouse gut metagenome with ENA study accession number: PRJEB37062 and ENA sample accession number: ERS12561829 for biotransformation under anaerobic condition. The drug concentrations were measured over 9 timepoints collected between 0 and 24 hours of incubation by liquid-chromatography-coupled mass spectrometry (LC–MS). The note with it: 2 µM.

The conditions of data set [7]: human gut metagenome, 24 h, 2 µM. The source holds these as a separate data set.
Data set [8] is described as follows: The drug is tested on Z-014 corresponding to rat gut metagenome with ENA study accession number: PRJEB37062 and ENA sample accession number: ERS12561814 for biotransformation under anaerobic condition. The drug concentrations were measured over 9 timepoints collected between 0 and 24 hours of incubation by liquid-chromatography-coupled mass spectrometry (LC–MS). The note with it: 2 µM.

For data set [9] the following is noted: human gut metagenome, 24 h, 2 µM. This is another data set of the same source.
Also: call rule not given here.

For the compound `CN1CCC(OC(c2ccccc2)c2ccccc2)CC1`, the “Bacterial Biotransformation” value was “Compound metabolized” in data set [1]; “Compound metabolized” in data set [2]; “Compound NOT metabolized” in data set [3]; “Compound metabolized” in data set [4]; “Compound NOT metabolized” in [5]; “Compound NOT metabolized” in data set [6]. Also, the “Bacterial Biotransformation” value in data set [7], in data set [8] and in data set [9] was “Compound NOT metabolized” each time.

`CC1=C(CC(=O)O)c2cc(F)ccc2/C1=C\c1ccc([S+](C)[O-])cc1` (centres undefined): the “Bacterial Biotransformation” value is given as “Compound metabolized” in data set [1]; “Compound metabolized” in [2]; “Compound metabolized” in [3]; “Compound metabolized” in data set [4]; “Compound NOT metabolized” in [5]; “Compound metabolized” in data set [6]. The “Bacterial Biotransformation” value in data set [7] was “Compound metabolized”; in data set [8], “Compound NOT metabolized”; in data set [9], “Compound metabolized”.

`CCOC(=O)[C@H](CCc1ccccc1)N[C@@H](C)C(=O)N1Cc2ccccc2C[C@H]1C(=O)O`: the “Bacterial Biotransformation” value is “Compound metabolized” in [1]; “Compound metabolized” in data set [2]; “Compound metabolized” in data set [3]; “Compound metabolized” in data set [4]; “Compound NOT metabolized” in data set [5]; “Compound NOT metabolized” in data set [6]. Moreover, the entries for the “Bacterial Biotransformation” value in data set [7], in data set [8] and in data set [9] were “Compound metabolized”, “Compound NOT metabolized” and “Compound metabolized”, respectively.

Consider `CCN1CCCC1CNC(=O)c1cc(S(=O)(=O)CC)c(N)cc1OC` (centres undefined) [AMISULPRIDE], for which the “Bacterial Biotransformation” value in data set [1] is “Compound NOT metabolized”; in data set [2] it was “Compound metabolized”; in [3], “Compound NOT metabolized”; in [4], “Compound NOT metabolized”; in data set [5], “Compound NOT metabolized”; in data set [6] it was “Compound NOT metabolized”. The “Bacterial Biotransformation” value in data set [7], in data set [8] and in data set [9] was “Compound NOT metabolized” in each case.

For `CC(C)NCC(O)COc1ccc(CC(N)=O)cc1` (centres undefined) [ATENOLOL], the “Bacterial Biotransformation” value in [1] was “Compound NOT metabolized”; in data set [2], “Compound metabolized”; in data set [3], “Compound NOT metabolized”; in [4], “Compound NOT metabolized”; in [5] it was “Compound NOT metabolized”; in data set [6] it was “Compound NOT metabolized”. The “Bacterial Biotransformation” value in [7], in data set [8] and in data set [9] was “Compound NOT metabolized” in each case.

As to `CC(=O)OCC(=O)[C@@]1(OC(C)=O)[C@@H](C)C[C@H]2[C@@H]3C[C@H](F)C4=CC(=O)C=C[C@]4(C)[C@@]3(F)[C@@H](O)C[C@@]21C` [DIFLORASONE DIACETATE], the “Bacterial Biotransformation” value was “Compound metabolized” in data set [1]; “Compound metabolized” in [2]; “Compound metabolized” in data set [3]; “Compound metabolized” in data set [4]; “Compound NOT metabolized” in data set [5]; “Compound metabolized” in data set [6]. Moreover, the “Bacterial Biotransformation” value in data set [7] was “Compound metabolized”; in data set [8], “Compound NOT metabolized”; in [9], “Compound metabolized”.

These data come from ChEMBL document CHEMBL5724914, “Linking interpersonal differences in gut microbiota composition and drug biotransformation activity” (2024).
